Data: patent US10364226B2, “Pyridazinone compounds and uses thereof” (priority 2013, dated 2019)

These compounds were tested against EN PA (Influenza A virus, UniProt P15659) (assay: EN PA FRET Inhibition Assay). Conditions: read-out: Potency.
Format: biochemical

CC(C)c1ccccc1-n1cc(O)c(=O)c(C(=O)O)n1 [Compound 8] and CCOc1ccccc1-n1cc(O)c(=O)c(C(=O)O)n1 [Compound 23] cannot be ordered by IC50: ≥ 1 µM for the first, 0.1 to 1 µM for the second.

CCc1ccccc1-c1ccccc1-n1cc(O)c(=O)c(C(=O)O)n1 [Compound 34] and Cc1ccccc1-c1ccccc1-n1cc(O)c(=O)c(C(=O)O)n1 [Compound 38] fall in the same range of IC50: 0.1 to 1 µM for the first, 0.1 to 1 µM for the second.

Cc1cccc(C)c1-n1cc(O)c(=O)c(C(=O)O)n1 [Compound 12] and Cc1cccc(-c2ccccc2-n2cc(O)c(=O)c(C(=O)O)n2)c1C [Compound 309] cannot be ordered by IC50: 0.1 to 1 µM for the first, ≥ 1 µM for the second.

O=C(O)c1nn(-c2ccc3cn[nH]c3c2)cc(O)c1=O [Compound 33] and O=C(O)c1nn(-c2ccc3[nH]ncc3c2)cc(O)c1=O [Compound 42] fall in the same range of IC50: 0.1 to 1 µM for the first, 0.1 to 1 µM for the second.

Cc1cc(C)cc(-c2ccccc2-n2cc(O)c(=O)c(C(=O)O)n2)c1 [Compound 301] and CCOc1cc(C)cc(-c2ccccc2-n2cc(O)c(=O)c(C(=O)NC)n2)c1 [Compound 633] cannot be ordered by IC50: 0.1 to 1 µM for the first, ≥ 1 µM for the second.

O=C(O)c1nn(-c2ccccc2-c2ccc(C(F)(F)F)cc2)cc(O)c1=O [Compound 307] and O=C(O)c1nn(-c2ccccc2-c2ccc(F)cc2)cc(O)c1=O [Compound 306] fall in the same range of IC50: 0.1 to 1 µM for the first, 0.1 to 1 µM for the second.

O=C(O)c1nn(-c2ccccc2CCO)cc(O)c1=O [Compound 29] and CC(C)(C)c1ccccc1-n1cc(O)c(=O)c(C(=O)O)n1 [Compound 16] fall in the same range of IC50: 0.1 to 1 µM for the first, 0.1 to 1 µM for the second.

CNC(=O)c1nn(-c2ccc3c(c2)OCCO3)cc(O)c1=O [Compound 601, 1,4-dihydro-1-(2,3-dihydrobenzo[b][1,4]dioxin-6-yl)-5-hydroxy-N-methyl-4-oxopyridazine-3-carboxamide] and O=C(O)c1nn(-c2ccc3c(c2)OCCO3)cc(O)c1=O [Compound 32] cannot be ordered by IC50: ≥ 1 µM for the first, 0.1 to 1 µM for the second.

CC(C)Cc1ccc(-c2ccccc2-n2cc(O)c(=O)c(C(=O)O)n2)cc1 [Compound 37] and CC(C)(C)c1ccc(-c2ccccc2-n2cc(O)c(=O)c(C(=O)O)n2)cc1 [Compound 302] fall in the same range of IC50: 0.1 to 1 µM for the first, 0.1 to 1 µM for the second.

CCN1CCN(c2ccccc2-n2cc(O)c(=O)c(C(=O)O)n2)CC1 [Compound 205] and CCN1CCN(c2ccccc2-n2cc(O)c(=O)c(C(=O)NC)n2)CC1 [Compound 615] cannot be ordered by IC50: ≥ 1 µM for the first, ≥ 1 µM for the second.

O=C(O)c1nn(C2CCc3ccccc3C2=O)cc(O)c1=O (stereo not shown) [Compound 418] and O=C(O)c1nn(-c2ccccc2C2CCNCC2)cc(O)c1=O [Compound 312] cannot be ordered by IC50: 0.1 to 1 µM for the first, ≥ 1 µM for the second.

O=C(NCc1ccc(F)c(Cl)c1)c1nn(CC2(c3ccc(Cl)cc3)CCCC2)cc(O)c1=O [Compound 803] and O=C(NCc1ccccc1)c1nn(CC2(c3ccc(Cl)cc3)CCCC2)cc(O)c1=O [Compound 804] cannot be ordered by IC50: < 0.1 µM for the first, < 0.1 µM for the second.

COc1ccc(-c2ccccc2)cc1-n1cc(O)c(=O)c(C(=O)O)n1 [Compound 13] and COc1cccc(-c2ccccc2-n2cc(O)c(=O)c(C(=O)O)n2)c1 [Compound 318] fall in the same range of IC50: 0.1 to 1 µM for the first, 0.1 to 1 µM for the second.

CNC(=O)c1nn(-c2ccccc2-c2ccccc2OCC(C)C)cc(O)c1=O [Compound 630] and CC(C)Oc1ccccc1-c1ccccc1-n1cc(O)c(=O)c(C(=O)O)n1 [Compound 310] fall in the same range of IC50: 0.1 to 1 µM for the first, 0.1 to 1 µM for the second.

CS(=O)(=O)c1ccc(-n2cc(O)c(=O)c(C(=O)O)n2)cc1 [Compound 31] and CC(C)(C)c1ccc(-n2cc(O)c(=O)c(C(=O)O)n2)cc1 [Compound 3, 1-(4-tert-butylphenyl)-5-hydroxy-4-oxo-1,4-dihydropyridazine-3-carboxylic acid] fall in the same range of IC50: 0.1 to 1 µM for the first, 0.1 to 1 µM for the second.

COc1ccc(Cl)c(-c2ccccc2-n2cc(O)c(=O)c(C(=O)O)n2)c1 [Compound 322] and COc1ccccc1-c1ccccc1-n1cc(O)c(=O)c(C(=O)O)n1 [Compound 315] fall in the same range of IC50: 0.1 to 1 µM for the first, 0.1 to 1 µM for the second.

Compared with O=C(O)c1nn(CC2(c3cc(C(F)(F)F)cc(C(F)(F)F)c3)CCCC2)cc(O)c1=O [Compound 419], O=C(O)c1nn(-c2cc(C(F)(F)F)ccc2N2CCCC2)cc(O)c1=O [Compound 201] is higher in IC50: < 0.1 µM for the first, 0.1 to 1 µM for the second. The first is the more potent here.

First: O=C(O)c1nn(-c2ccc(Oc3ccccc3)cc2)cc(O)c1=O [Compound 43]
Second: O=C(O)c1nn(-c2ccccc2-c2ccccc2Oc2ccccc2)cc(O)c1=O [Compound 311]
The IC50 of the first is higher: 0.1 to 1 µM for the first, < 0.1 µM for the second. The second is the more potent here.

CNC(=O)c1nn(-c2ccccc2N2CCN(C)CC2)cc(O)c1=O [Compound 600, 1,4-dihydro-5-hydroxy-N-methyl-1-(2-(4-methylpiperazin-1-yl)phenyl)-4-oxopyridazine-3-carboxamide] and CN1CCN(c2ccccc2-n2cc(O)c(=O)c(C(=O)O)n2)CC1 [Compound 204] cannot be ordered by IC50: ≥ 1 µM for the first, ≥ 1 µM for the second.

CCCCNS(=O)(=O)c1cccc(-n2cc(O)c(=O)c(C(=O)O)n2)c1 [Compound 22] and O=C(O)c1nn(-c2ccc(C(F)(F)F)cc2)cc(O)c1=O [Compound 27] fall in the same range of IC50: 0.1 to 1 µM for the first, 0.1 to 1 µM for the second.

CC(C)(C)C1CCN(c2ccccc2-n2cc(O)c(=O)c(C(=O)O)n2)CC1 [Compound 208] and CC1CCN(c2ccccc2-n2cc(O)c(=O)c(C(=O)O)n2)CC1 [Compound 202] fall in the same range of IC50: 0.1 to 1 µM for the first, 0.1 to 1 µM for the second.

Cc1cn(C2(Cn3cc(O)c(=O)c(C(=O)O)n3)CCCC2)c2ncccc12 [Compound 425] and O=C(O)c1nn(-c2ccccc2C2CCCCC2)cc(O)c1=O [Compound 308] fall in the same range of IC50: 0.1 to 1 µM for the first, 0.1 to 1 µM for the second.

Cc1cc(F)ccc1-c1ccccc1-n1cc(O)c(=O)c(C(=O)O)n1 [Compound 305] and CC(C)c1ccccc1-c1ccccc1-n1cc(O)c(=O)c(C(=O)O)n1 [Compound 39] fall in the same range of IC50: 0.1 to 1 µM for the first, 0.1 to 1 µM for the second.

CNC(=O)c1nn(-c2ccccc2N2CCCC(C)(C)C2)cc(O)c1=O [Compound 616] and O=C(O)c1nn(-c2ccccc2N2CCOCC2)cc(O)c1=O [Compound 41] cannot be ordered by IC50: ≥ 1 µM for the first, 0.1 to 1 µM for the second.

CNC(=O)c1nn(CCc2cccc3ccccc23)cc(OC(C)=O)c1=O [Compound 636] and CNC(=O)c1nn(-c2ccccc2-c2ccc3c(ccn3C)c2)cc(O)c1=O [Compound 620] cannot be ordered by IC50: ≥ 1 µM for the first, ≥ 1 µM for the second.

CNC(=O)c1nn(-c2ccccc2-c2ccc3cc[nH]c3c2)cc(O)c1=O [Compound 521] and Cn1ccc2ccc(-c3ccccc3-n3cc(O)c(=O)c(C(=O)O)n3)cc21 [Compound 324] cannot be ordered by IC50: ≥ 1 µM for the first, 0.1 to 1 µM for the second.

Cc1ccc2cccc(-n3cc(O)c(=O)c(C(=O)O)n3)c2n1 [Compound 15] and N#Cc1ccc(-c2ccccc2-n2cc(O)c(=O)c(C(=O)O)n2)cc1 [Compound 36] fall in the same range of IC50: 0.1 to 1 µM for the first, 0.1 to 1 µM for the second.

O=C(O)c1nn(-c2ccccc2-c2ccccc2OC(F)(F)F)cc(O)c1=O [Compound 40] and O=C(O)c1nn(-c2ccccc2OC(F)F)cc(O)c1=O [Compound 14] cannot be ordered by IC50: 0.1 to 1 µM for the first, ≥ 1 µM for the second.

NC(=O)c1nn(-c2ccccc2S(=O)(=O)c2ccccc2)cc(O)c1=O [Compound 617] and CNC(=O)c1nn(-c2ccccc2N2CCc3ccccc32)cc(O)c1=O [Compound 632] cannot be ordered by IC50: ≥ 1 µM for the first, ≥ 1 µM for the second.

O=C(O)c1nn(-c2ccc(N3CCCCC3)cc2)cc(O)c1=O [Compound 28] and CNC(=O)c1nn(-c2ccccc2-c2cc(C)ccc2OC(C)C)cc(O)c1=O [Compound 522] cannot be ordered by IC50: ≥ 1 µM for the first, 0.1 to 1 µM for the second.

With CNC(=O)c1nn(-c2ccccc2-c2cc(Cl)cc(OC)c2)cc(O)c1=O [Compound 629] the IC50 was ≥ 1 µM.
